Measurements taken from ChEMBL document CHEMBL1145498, “A systematic interaction map of validated kinase inhibitors with Ser/Thr kinases” (Proc Natl Acad Sci U S A, 2007).

Experiments:
[1] = molecular target: Calcium/calmodulin-dependent protein kinase type II subunit gamma (Homo sapiens) (UniProt Q13555)
[2] = molecular target: Serine/threonine-protein kinase 26 (Homo sapiens) (UniProt Q9P289)
[3] = molecular target: Serine/threonine-protein kinase PAK 5 (Homo sapiens) (UniProt Q9P286)
[4] = molecular target: Calcium/calmodulin-dependent protein kinase kinase 2 (Homo sapiens, UniProt Q96RR4)
[5] = molecular target: Serine/threonine-protein kinase OSR1 (Homo sapiens) (UniProt O95747)
[6] = molecular target: Mitogen-activated protein kinase 11 (Homo sapiens, UniProt Q15759)
[7] = molecular target: Serine/threonine-protein kinase 38 (Homo sapiens) (UniProt Q15208)
[8] = molecular target: Calcium/calmodulin-dependent protein kinase type 1D (Homo sapiens) (UniProt Q8IU85)
[9] = molecular target: Glycogen synthase kinase-3 beta (Homo sapiens, UniProt P49841)
[10] = molecular target: Serine/threonine-protein kinase RIO2 (Homo sapiens) (UniProt Q9BVS4)
[11] = molecular target: Calcium/calmodulin-dependent protein kinase type II subunit delta (Homo sapiens) (UniProt Q13557)
[12] = molecular target: TRAF2 and NCK-interacting protein kinase (Homo sapiens) (UniProt Q9UKE5)
[13] = molecular target: Serine/threonine-protein kinase PAK 6 (Homo sapiens) (UniProt Q9NQU5)
[14] = molecular target: T1, Serine/threonine-protein kinase PLK4 (Homo sapiens) (UniProt O00444)
T1 sequence (whole entry): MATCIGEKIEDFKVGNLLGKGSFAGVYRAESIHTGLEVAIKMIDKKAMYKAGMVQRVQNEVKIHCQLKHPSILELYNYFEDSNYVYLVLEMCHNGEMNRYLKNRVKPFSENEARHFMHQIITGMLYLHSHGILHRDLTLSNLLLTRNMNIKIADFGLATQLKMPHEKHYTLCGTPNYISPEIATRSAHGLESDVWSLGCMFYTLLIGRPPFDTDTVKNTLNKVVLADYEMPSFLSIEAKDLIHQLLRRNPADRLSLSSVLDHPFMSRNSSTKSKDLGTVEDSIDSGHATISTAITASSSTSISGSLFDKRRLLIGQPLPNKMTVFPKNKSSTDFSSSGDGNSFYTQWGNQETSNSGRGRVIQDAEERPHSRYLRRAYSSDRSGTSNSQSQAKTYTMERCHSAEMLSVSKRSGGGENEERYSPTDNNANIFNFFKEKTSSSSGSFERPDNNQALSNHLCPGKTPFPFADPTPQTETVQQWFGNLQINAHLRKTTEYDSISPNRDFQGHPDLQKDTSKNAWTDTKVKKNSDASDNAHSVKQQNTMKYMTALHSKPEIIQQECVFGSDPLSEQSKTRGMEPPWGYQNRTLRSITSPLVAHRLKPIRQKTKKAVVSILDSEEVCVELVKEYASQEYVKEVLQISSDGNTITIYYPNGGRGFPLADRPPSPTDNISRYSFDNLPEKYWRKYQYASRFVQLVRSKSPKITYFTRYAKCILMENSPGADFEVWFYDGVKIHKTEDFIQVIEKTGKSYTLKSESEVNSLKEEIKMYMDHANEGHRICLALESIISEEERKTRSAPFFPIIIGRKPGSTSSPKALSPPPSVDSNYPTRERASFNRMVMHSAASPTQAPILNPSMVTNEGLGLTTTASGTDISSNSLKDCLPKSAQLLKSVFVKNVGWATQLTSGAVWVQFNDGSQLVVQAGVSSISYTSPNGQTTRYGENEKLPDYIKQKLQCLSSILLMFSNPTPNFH

[15] = molecular target: T2, Dual specificity mitogen-activated protein kinase kinase 6 (Homo sapiens) (UniProt P52564)
T2 sequence (whole entry): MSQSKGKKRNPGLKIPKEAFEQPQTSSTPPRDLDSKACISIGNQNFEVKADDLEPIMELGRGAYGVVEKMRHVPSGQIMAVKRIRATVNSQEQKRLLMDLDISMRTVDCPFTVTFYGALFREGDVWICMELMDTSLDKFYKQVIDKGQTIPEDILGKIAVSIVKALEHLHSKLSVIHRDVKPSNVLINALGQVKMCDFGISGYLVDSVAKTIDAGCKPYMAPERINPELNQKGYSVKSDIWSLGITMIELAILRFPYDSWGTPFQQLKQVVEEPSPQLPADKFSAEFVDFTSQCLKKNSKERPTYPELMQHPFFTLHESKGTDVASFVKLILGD

[16] = molecular target: T3, 3-phosphoinositide-dependent protein kinase 1 (Homo sapiens) (UniProt O15530)
T3 sequence (whole entry): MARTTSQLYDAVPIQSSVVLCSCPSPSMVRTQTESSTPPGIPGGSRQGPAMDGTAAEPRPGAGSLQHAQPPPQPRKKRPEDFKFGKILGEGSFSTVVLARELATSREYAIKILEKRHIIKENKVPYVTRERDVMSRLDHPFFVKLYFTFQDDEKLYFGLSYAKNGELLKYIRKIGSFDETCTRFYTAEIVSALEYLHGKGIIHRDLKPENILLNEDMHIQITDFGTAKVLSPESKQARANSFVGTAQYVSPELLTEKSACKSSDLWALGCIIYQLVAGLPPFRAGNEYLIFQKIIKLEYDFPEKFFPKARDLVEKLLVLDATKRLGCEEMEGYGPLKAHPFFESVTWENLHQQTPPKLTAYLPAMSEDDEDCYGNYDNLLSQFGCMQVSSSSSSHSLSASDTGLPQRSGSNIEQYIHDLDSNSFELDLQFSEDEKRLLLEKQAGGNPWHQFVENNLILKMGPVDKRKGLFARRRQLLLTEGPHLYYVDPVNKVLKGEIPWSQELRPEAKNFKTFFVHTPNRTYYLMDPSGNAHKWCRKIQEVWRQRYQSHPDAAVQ

[17] = molecular target: Calcium/calmodulin-dependent protein kinase type 1G (Homo sapiens) (UniProt Q96NX5)
Calcium/calmodulin-dependent protein kinase type 1G (Homo sapiens), sequence (Q96NX5 whole entry): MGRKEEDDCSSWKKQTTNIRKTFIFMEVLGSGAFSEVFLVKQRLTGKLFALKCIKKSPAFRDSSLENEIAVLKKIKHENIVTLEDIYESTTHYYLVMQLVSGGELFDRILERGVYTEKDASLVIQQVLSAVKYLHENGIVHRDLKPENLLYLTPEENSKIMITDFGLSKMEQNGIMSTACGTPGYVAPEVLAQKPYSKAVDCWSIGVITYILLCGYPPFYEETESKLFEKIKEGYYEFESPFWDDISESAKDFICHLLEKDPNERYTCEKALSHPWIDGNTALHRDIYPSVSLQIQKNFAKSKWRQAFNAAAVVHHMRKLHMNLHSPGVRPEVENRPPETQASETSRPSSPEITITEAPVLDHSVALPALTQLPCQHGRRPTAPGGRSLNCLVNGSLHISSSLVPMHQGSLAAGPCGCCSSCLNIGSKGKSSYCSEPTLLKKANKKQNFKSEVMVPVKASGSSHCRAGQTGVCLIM

Serine/threonine-protein kinase RIO2 (Homo sapiens), sequence (Q9BVS4 whole entry, looked up): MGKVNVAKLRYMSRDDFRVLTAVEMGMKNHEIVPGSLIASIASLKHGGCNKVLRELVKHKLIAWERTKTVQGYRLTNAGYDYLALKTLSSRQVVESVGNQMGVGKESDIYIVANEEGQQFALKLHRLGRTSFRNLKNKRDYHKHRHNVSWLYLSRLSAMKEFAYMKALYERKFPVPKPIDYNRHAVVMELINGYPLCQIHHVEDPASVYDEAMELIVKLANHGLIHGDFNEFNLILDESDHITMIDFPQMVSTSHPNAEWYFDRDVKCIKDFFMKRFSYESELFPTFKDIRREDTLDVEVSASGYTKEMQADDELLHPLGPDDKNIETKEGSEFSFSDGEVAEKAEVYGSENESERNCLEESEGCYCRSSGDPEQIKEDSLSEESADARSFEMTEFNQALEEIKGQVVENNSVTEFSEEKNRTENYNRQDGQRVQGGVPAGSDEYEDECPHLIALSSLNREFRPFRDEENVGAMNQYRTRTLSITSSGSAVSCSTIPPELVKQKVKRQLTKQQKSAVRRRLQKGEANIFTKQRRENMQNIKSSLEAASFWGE
Calcium/calmodulin-dependent protein kinase type II subunit delta (Homo sapiens), sequence (Q13557 whole entry): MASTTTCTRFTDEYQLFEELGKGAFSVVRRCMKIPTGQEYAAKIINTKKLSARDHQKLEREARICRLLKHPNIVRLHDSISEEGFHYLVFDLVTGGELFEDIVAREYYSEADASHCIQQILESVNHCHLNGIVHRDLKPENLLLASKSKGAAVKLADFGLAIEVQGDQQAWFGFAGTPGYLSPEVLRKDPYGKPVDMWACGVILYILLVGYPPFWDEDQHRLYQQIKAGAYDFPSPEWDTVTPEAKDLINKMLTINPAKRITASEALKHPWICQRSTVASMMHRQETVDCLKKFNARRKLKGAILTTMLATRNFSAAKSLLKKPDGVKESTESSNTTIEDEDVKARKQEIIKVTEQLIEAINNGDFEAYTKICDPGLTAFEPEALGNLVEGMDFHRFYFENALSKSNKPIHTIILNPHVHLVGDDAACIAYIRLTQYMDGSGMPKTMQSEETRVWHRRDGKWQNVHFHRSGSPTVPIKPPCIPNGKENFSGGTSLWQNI
Serine/threonine-protein kinase 26 (Homo sapiens), sequence (Q9P289 2-416 limits assumed): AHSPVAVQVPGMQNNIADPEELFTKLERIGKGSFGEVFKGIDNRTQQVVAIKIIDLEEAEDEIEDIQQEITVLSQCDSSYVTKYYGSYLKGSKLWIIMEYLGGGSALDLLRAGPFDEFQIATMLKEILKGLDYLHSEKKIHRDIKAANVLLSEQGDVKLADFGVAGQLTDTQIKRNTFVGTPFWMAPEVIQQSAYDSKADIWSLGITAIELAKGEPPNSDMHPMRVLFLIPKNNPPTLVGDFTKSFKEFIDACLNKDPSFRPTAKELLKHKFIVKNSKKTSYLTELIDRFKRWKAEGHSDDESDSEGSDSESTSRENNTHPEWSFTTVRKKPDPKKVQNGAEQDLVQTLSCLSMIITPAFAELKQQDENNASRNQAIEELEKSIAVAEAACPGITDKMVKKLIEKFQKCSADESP
Serine/threonine-protein kinase OSR1 (Homo sapiens), sequence (O95747 2-527 limits assumed): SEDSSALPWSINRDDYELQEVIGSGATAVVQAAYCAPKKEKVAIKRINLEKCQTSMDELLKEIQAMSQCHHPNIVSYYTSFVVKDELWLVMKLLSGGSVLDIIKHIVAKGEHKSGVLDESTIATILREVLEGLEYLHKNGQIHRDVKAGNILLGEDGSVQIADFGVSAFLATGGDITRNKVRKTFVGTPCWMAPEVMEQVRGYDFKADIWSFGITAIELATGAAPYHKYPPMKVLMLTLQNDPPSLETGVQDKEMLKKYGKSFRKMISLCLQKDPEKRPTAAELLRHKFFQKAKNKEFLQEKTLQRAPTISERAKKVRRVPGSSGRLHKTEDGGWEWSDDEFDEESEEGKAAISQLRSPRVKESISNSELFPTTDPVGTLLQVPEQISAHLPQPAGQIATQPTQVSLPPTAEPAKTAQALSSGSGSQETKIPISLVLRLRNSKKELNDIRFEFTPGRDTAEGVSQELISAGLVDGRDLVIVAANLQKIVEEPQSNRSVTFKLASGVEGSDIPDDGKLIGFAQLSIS
Serine/threonine-protein kinase PAK 5 (Homo sapiens), sequence (Q9P286 whole entry, looked up): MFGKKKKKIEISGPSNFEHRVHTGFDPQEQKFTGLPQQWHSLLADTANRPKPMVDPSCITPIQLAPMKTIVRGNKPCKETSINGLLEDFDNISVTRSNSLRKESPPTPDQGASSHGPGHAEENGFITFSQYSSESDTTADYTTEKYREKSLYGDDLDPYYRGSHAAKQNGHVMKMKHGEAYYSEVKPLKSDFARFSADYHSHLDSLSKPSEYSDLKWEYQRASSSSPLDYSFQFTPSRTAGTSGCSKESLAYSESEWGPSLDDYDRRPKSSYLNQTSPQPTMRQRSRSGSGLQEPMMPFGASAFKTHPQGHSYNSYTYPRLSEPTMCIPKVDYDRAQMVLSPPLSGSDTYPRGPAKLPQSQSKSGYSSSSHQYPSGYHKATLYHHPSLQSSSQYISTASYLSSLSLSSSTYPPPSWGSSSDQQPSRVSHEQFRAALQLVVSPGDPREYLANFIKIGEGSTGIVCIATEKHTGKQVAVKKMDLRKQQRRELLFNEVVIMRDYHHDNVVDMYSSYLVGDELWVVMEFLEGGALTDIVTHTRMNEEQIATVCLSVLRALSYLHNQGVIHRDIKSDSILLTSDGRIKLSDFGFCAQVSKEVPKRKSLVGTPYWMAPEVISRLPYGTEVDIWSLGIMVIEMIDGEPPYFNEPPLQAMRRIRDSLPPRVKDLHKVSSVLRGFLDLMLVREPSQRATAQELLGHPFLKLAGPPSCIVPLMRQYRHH
Mitogen-activated protein kinase 11, sequence (Q15759 whole entry): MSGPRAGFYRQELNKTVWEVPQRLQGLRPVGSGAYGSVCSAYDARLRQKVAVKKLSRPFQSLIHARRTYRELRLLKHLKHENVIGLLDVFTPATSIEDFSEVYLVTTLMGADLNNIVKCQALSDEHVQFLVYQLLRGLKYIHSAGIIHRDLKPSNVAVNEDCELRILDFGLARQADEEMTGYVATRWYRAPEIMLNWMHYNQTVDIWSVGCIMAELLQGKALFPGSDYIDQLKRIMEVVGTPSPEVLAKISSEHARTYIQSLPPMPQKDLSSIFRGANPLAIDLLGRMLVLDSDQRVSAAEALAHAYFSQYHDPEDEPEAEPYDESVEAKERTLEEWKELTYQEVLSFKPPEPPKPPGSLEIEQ
Calcium/calmodulin-dependent protein kinase type II subunit gamma (Homo sapiens), sequence (Q13555 whole entry): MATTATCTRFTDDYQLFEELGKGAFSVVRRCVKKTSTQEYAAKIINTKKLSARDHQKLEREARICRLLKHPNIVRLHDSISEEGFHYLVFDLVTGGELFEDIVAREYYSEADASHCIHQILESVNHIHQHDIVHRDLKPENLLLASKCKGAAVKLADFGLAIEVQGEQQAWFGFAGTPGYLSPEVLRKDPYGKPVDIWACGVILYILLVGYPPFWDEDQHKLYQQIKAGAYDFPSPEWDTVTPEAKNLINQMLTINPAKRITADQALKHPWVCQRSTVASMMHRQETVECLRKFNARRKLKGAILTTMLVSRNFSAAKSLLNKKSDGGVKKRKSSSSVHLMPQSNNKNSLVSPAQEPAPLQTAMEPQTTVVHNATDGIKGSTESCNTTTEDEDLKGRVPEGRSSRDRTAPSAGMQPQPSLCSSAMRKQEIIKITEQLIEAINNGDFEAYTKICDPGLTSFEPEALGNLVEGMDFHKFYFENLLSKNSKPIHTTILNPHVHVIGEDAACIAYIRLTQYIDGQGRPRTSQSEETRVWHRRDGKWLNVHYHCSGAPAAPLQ
Calcium/calmodulin-dependent protein kinase type 1D (Homo sapiens), sequence (Q8IU85 whole entry, looked up): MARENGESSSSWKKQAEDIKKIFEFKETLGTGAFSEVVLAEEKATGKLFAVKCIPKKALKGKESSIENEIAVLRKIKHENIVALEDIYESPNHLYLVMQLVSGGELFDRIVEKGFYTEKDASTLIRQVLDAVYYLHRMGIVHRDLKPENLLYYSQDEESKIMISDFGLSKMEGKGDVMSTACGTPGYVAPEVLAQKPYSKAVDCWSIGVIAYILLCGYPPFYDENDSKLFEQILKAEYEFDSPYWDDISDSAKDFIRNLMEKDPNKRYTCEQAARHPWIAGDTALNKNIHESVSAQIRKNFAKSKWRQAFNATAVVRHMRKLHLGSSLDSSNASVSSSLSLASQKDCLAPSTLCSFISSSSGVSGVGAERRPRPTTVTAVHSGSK
Glycogen synthase kinase-3 beta, sequence (P49841 whole entry, looked up): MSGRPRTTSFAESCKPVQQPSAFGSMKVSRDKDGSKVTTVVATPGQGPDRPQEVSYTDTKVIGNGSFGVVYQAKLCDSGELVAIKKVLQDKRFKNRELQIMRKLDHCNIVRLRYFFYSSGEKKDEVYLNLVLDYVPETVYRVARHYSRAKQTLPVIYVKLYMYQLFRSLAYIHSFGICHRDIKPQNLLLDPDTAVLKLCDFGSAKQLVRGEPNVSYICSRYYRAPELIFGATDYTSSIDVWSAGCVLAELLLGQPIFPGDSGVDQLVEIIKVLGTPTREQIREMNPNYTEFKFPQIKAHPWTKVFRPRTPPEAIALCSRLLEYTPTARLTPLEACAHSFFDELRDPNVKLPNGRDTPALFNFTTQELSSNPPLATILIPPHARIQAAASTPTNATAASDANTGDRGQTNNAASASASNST

Row | SMILES | ΔTm [1] [°C] | ΔTm [2] [°C] | ΔTm [3] [°C] | ΔTm [4] [°C] | ΔTm [5] [°C] | ΔTm [6] [°C] | ΔTm [7] [°C] | ΔTm [8] [°C] | ΔTm [9] [°C] | ΔTm [10] [°C] | ΔTm [11] [°C] | ΔTm [12] [°C] | ΔTm [13] [°C] | ΔTm [14] [°C] | ΔTm [15] [°C] | ΔTm [16] [°C] | ΔTm [17] [°C]
1 | COc1cc2ncnc(Nc3ccc(F)c(Cl)c3)c2cc1OCCCN1CCOCC1 | 0.4 | 0 | 0.2 | 0.7 | 0.2 | 0.8 | 0.5 | 0.4 | 0.9 | 2 | 0.1 | -1 | 0 | 0 | 0.1 | -0.5 | 1
2 | COC1=C2C[C@@H](C)C[C@H](OC)[C@H](O)[C@@H](C)/C=C(\C)[C@H](OC(N)=O)[C@@H](OC)/C=C\C=C(/C)C(=O)NC(=CC1=O)C2=O | 0.1 | -0.4 | 0 | -0.6 | 0.8 | -0.2 | 0.2 | 0.1 | 0.5 | -0.6 | -0.5 | -0.4 | 0.3 | 0.2 | 0 | 0 | 0.2
3 | N#C/C(=C\c1ccc(O)c(O)c1)C(=O)NCc1ccccc1 | -0.2 | 0.1 | 0.3 | 0.2 | 0.7 | 0.4 | 0.1 | 0.2 | 2.6 | 1.5 | 0.3 | 0.8 | -0.4 | 0.9 | 0.4 | 0.5 | 0.1
4 | Cn1cc(C2=C(c3cn(CCCSC(=N)N)c4ccccc34)C(=O)NC2=O)c2ccccc21 | 5.2 | 2.3 | 1.9 | 0.1 | -0.5 | 2 | 0.8 | 2 | 12.8 | 3.1 | 1.1 | 3.8 | 3.1 | 2.6 | 0.9 | 0.1 | 3.1
5 | O=C(O)Cc1ccc(O)c([N+](=O)[O-])c1 | -0.1 | -0.4 | 0.1 | -0.1 | 0 | 0.8 | 2 | 0 | 0.6 | -0.1 | 0.9 | -0.2 | -0.9 | 0.8 | 0 | -0.6 | 0.6
6 | O=c1sn(Cc2ccccc2)c(=S)n1Cc1ccccc1 | 0.4 | 0.4 | 0.5 | -1.2 | 0.1 | -0.3 | 0.4 | 0.1 | -1 | 0.1 | 0.6 | 0 | 0.1 | -0.2 | 0.1 | 0 | -0.1
7 | CC(C)(C)c1cc(C=C2C(=O)C=CC2=O)cc(C(C)(C)C)c1O | 0.3 | 0.5 | 0.2 | -0.8 | 0.3 | -1.5 | 0.4 | -2.2 | -4 | 0.3 | 2.1 | -3.1 | -2.5 | 1 | -2.5 | -0.1 | -0.4
8 | O=C1Nc2ccc(I)cc2/C1=C\c1cc(Br)c(O)c(Br)c1 | -0.3 | -0.4 | 1 | 3.5 | -0.4 | -0.2 | 0.5 | -0.1 | 3.6 | -0.4 | 0.9 | 3.9 | -0.3 | 1.3 | 1.6 | -1 | -1.8
9 | O=C1C=C2C(=Nc3c2c2c(c4c3=NC3=C4CCC=C3)C=NC=2)CC1 | 2.4 | 4.8 | 2.7 | 6.3 | 2.1 | 1.2 | 3.6 | 3.6 | 2.3 | 4.7 | 2 | 1.3 | 3.1 | 2.3 | 5.3 | -0.3 | 3.6
10 | O=c1cc(N2CCOCC2)oc2c(-c3ccccc3)cccc12 | 0.3 | -0.3 | 0.5 | 0.4 | 0.4 | -0.3 | 0.6 | 0.3 | 1.1 | 1 | 0.4 | -0.2 | -0.6 | 0 | 0.4 | 0 | 0.4
11 | C#Cc1cccc(Nc2ncnc3cc(OCCOC)c(OCCOC)cc23)c1 | 0.3 | -0.4 | 0.1 | 0.1 | 0 | 0 | -0.3 | 0.1 | -0.1 | 0.3 | -0.3 | -0.2 | -0.1 | -0.1 | 0.2 | 0 | 0
12 | O=C1Cc2c([nH]c3ccc([N+](=O)[O-])cc23)-c2ccccc2N1 | -0.1 | 2.5 | 3.8 | 2.5 | 1.2 | -0.1 | 1.8 | 0.8 | 11.9 | 1.3 | 0 | 6.1 | 3.1 | 6.9 | 1.2 | 0 | 0.5
